Test results published in ChEMBL document CHEMBL3751774, “Synthesis and anti-tubercular activity of conformationally-constrained and bisquinoline analogs of TMC207” (Medchemcomm, 2015).
Values after ≈ are worked out from the molar mass of the structure shown.

tested on: Mycobacterium tuberculosis; experiment: Antitubercular activity against multi drug resistant Mycobacterium tuberculosis isolate 1 assessed as growth inhibition after 4 weeks; type: functional; settings: isolate 1, 672 h

**Q.** With COc1nc2ccccc2cc1C(c1cc2ccccc2nc1OC)C(O)(CCN(C)C)c1ccc2ccccc2c1 (stereo not drawn) as the compound, how does the MIC read?
**A.** 3.12 µM (≈ 1.74 µg/mL)

**Q.** Which MIC does the source give for COc1nc2ccccc2cc1C(c1cc2ccccc2nc1OC)C(O)(CCN(C)C)c1cccc(Br)c1 (stereo not drawn) here?
**A.** 3.12 µM (≈ 1.83 µg/mL)

**Q.** How did the MIC turn out when COc1nc2ccccc2cc1C(c1cc2ccccc2nc1OC)C(O)(CCN(C)C)c1ccccc1 (stereo not drawn) was run?
**A.** 3.12 µM (≈ 1.58 µg/mL)

**Q.** For C=CCCOc1nc2ccccc2cc1C(c1cc2ccccc2nc1OCCC=C)C(O)(CCN(C)C)c1ccc(Br)cc1 (stereo not drawn), which MIC is on record?
**A.** 3.12 µM (≈ 2.08 µg/mL)

tested on: Mycobacterium tuberculosis; experiment: Antitubercular activity against multi drug resistant Mycobacterium tuberculosis isolate 2 assessed as growth inhibition after 4 weeks; type: functional; settings: isolate 2, 672 h

**Q.** How did the MIC turn out when COc1nc2ccccc2cc1C(c1cc2ccccc2nc1OC)C(O)(CCN(C)C)c1ccc2ccccc2c1 (stereo not drawn) was run?
**A.** 3.12 µM (≈ 1.74 µg/mL)

**Q.** How did the MIC turn out when COc1nc2ccccc2cc1C(c1cc2ccccc2nc1OC)C(O)(CCN(C)C)c1cccc(Br)c1 (stereo not drawn) was run?
**A.** 3.12 µM (≈ 1.83 µg/mL)

**Q.** How did the MIC turn out when COc1nc2ccccc2cc1C(c1cc2ccccc2nc1OC)C(O)(CCN(C)C)c1ccccc1 (stereo not drawn) was run?
**A.** 3.12 µM (≈ 1.58 µg/mL)

**Q.** C=CCCOc1nc2ccccc2cc1C(c1cc2ccccc2nc1OCCC=C)C(O)(CCN(C)C)c1ccc(Br)cc1 (stereo not drawn) was tested. Which MIC did it give?
**A.** 3.12 µM (≈ 2.08 µg/mL)
